According to PMC9978856 (Acta Pharmaceutica Sinica. B, 2022):

Experiments:
CYP1A [1] = tested on: CYP1A
[2] = CYP1A1/2 KO compared with WT group; caffeine 5 mg/kg by gavage
CES1 = settings: cited from earlier work
[3] = tested on: food-borne hypercholesteremia rat model; assay: Lan treatment in food-borne hypercholesteremia rat model; type: in vivo
CYP1A [4] = settings: Lan 50 mg/kg/day for 7 days; cited from earlier work
Ldlr KO rats = assay: Lan treatment of Ldlr KO rats; type: in vivo, rat; settings: Lan 50 mg/kg/day p.o. for 21 days
[5] = RLM of KO rats compared with WT rats
[6] = HCD + Lan 10 group (10 mg/kg/day, 11 weeks) vs HCD + Sol group
[7] = HCD + Lan 50 group (50 mg/kg/day, 11 weeks) vs HCD + Sol group

Cn1c(=O)c2c(ncn2C)n(C)c1=O [caffeine]
Km of caffeine metabolism in RLM (CYP1A [1]; KO versus WT rats RLM): remained unchanged
decrease of CLint of caffeine (CYP1A [1]; [5]): 50%
decrease of Vmax of 3-demethylation caffeine formation (CYP1A [1]; [5]): 38%
increase of AUC of caffeine [2]: 200%

CC(C)CCC[C@@H](C)[C@H]1CC[C@H]2[C@@H]3CC=C4C[C@@H](O)CC[C@]4(C)[C@H]3CC[C@]12C [cholesterol]
inhibitory effect on CES1 (CES1): no inhibitory effect

C[C@@H](CO)CCC[C@@H](C)[C@H]1CC[C@H]2[C@@H]3CC=C4C[C@@H](O)CC[C@]4(C)[C@H]3CC[C@]12C [27-hydroxycholesterol]
inhibitory effect on CES1 (CES1): strong selective inhibitory effect

Cc1c(OCC(F)(F)F)ccnc1C[S+]([O-])c1nc2ccccc2[nH]1 (centres unmarked) [Lan, Lansoprazole]
decrease of serum LDL-C content [3, 6]: 40%
decrease of serum TG concentration [3, 6]: 27%
increase of HDL-C/LDL-C ratio [3, 6]: 170%
reduction of serum T-C content [3, 6]: 39%
decrease of serum LDL-C content [3, 7]: 65%
decrease of serum TG concentration [3, 7]: 42%
increase of HDL-C/LDL-C ratio [3, 7]: 200%
reduction of serum T-C content [3, 7]: 47%
serum transaminases ([3]; HCD-fed rats, Lan treatment, 11 weeks): reduced serum transaminases to physiological levels
lipid accumulation in liver (oil red O staining) ([3]; both 10 and 50 mg/kg Lan groups vs HCD + Sol group, 11 weeks): less than that in the HCD + Sol group
increase of the metabolic activity of CYP1A in rats (CYP1A [4]): 4 times
lipids in serum, including TG, LDL-C, HDL-C, and T-C (Ldlr KO rats): remained unchanged
liver lipidosis (HE staining) (Ldlr KO rats): significantly alleviated
CYP1A protein expression in the liver (Ldlr KO rats; Western blot): significantly induced
